In patent US20190175560A1, “MEBENDAZOLE CANCER THERAPIES AND METHODS OF USE” (Shepherd Therapeutics, Inc., priority 2017, published 2019):

How the values were obtained:
Assay type in all cases: cell-based
[1] = test system: STC-1 carcinoid tumor cell line; experiment: Synergy of MBZ with chemotherapeutic agents (Chou-Talalay CI, Cell Titer Glo); settings: in combination with MBZ, 72 hour incubation
Method: (§1) For in vitro experiments, cells were plated in triplicate and treated with a range of concentrations of MBZ and relevant chemotherapeutic agents in a complete Latin square.
(§2) Cells were plated in triplicate and treated with a range of 5 concentrations of MBZ in combination with 5 concentrations of chemotherapeutic agents in a complete Latin square. Following a 72 hour incubation, cell viability was determined using Cell Titer Glo. The Combination index (CI) was determined based on the method described by Chou and Talalay (2010) with a CI value less than 0.9 indicating synergy.

[2] = test system: BxPC-3 pancreatic carcinoma cells; experiment: as above; settings: in combination with MBZ, 72 hour incubation
Method: as §1
(§3) Cells were plated in triplicate and treated with a range of 5 concentrations of MBZ in combination with 5 concentrations of chemotherapeutic agents in a complete Latin square. Following a 72 hour incubation, cell viability was determined using Cell Titer Glo.

[3] = test system: Kato-III gastric carcinoma cells; experiment: as above; settings: in combination with MBZ, 72 hour incubation
Method: as §1, §3

[4] = test system: SNU16 gastric carcinoma cells; experiment: Synergy of MBZ or HA-PLGA-MBZ with chemotherapeutic agents (Chou-Talalay CI, Cell Titer Glo); settings: in combination with MBZ; SNU16; 72 hour incubation
Method: as §1, §3
(§4) In table 22 below, cells were plated in triplicate and treated with a range of 5 concentrations of MBZ or HA-PLGA-MBZ nanoparticles containing a molar equivalent of MBZ, and 5 concentrations of relevant chemotherapeutic agents in a complete Latin square. Combination indexes (CI) were determined based on the method described by Chou-Talalay with a CI value less than 0.9 indicating synergy. […] Numbers in parentheses represent the range of synergistic CI values for each cell line and drug combination.

[5] = test system: Flo-1 esophageal carcinoma cells; experiment: Synergy of MBZ with chemotherapeutic agents (Chou-Talalay CI, Cell Titer Glo); settings: in combination with MBZ, 72 hour incubation
Method: as §1, §3

[6] = test system: Hs766t pancreatic carcinoma cells; experiment: as above; settings: in combination with MBZ, 72 hour incubation
Method: as §2

[7] = test system: Colo-205 colorectal carcinoma cells; experiment: as above; settings: in combination with MBZ, 72 hour incubation
Method: as §1, §3

[8] = test system: CCC-5 cholangiocarcinoma cells; experiment: as above; settings: in combination with MBZ, 72 hour incubation
Method: as §1, §3

[9] = test system: HCT116 colorectal carcinoma cells; experiment: as above; settings: in combination with MBZ, 72 hour incubation
Method: as §1, §3

[10] = test system: GIST-1 gastrointestinal stromal tumor cell line; experiment: Synergy of MBZ with small molecule agents (Chou-Talalay CI, Cell Titer Glo); settings: in combination with MBZ, 72 hour incubation
Method: (§5) For in vitro experiments, cells were plated in triplicate and treated with a range of concentrations of MBZ and relevant chemotherapeutic agents in a complete Latin square. Combination indexes (CI) were determined based on the method described by Chou and Talalay (Cancer Res. 2010 Jan. 15; 70(2):440-6. doi: 10.1158/0008-5472.CAN-09-1947. Epub 2010 Jan. 12).
as §2

[11] = test system: OE-33 esophageal carcinoma cells; experiment: Synergy of MBZ with chemotherapeutic agents (Chou-Talalay CI, Cell Titer Glo); settings: in combination with MBZ, 72 hour incubation
Method: as §1, §3

[12] = test system: COV362 ovarian carcinoma cells; experiment: as above; settings: in combination with MBZ, 72 hour incubation
Method: as §1, §3

[13] = test system: CHP-212 neuroblastoma cells; experiment: Synergy of MBZ or HA-PLGA-MBZ with chemotherapeutic agents (Chou-Talalay CI, Cell Titer Glo); settings: in combination with MBZ; CHP-212; 72 hour incubation
Method: as §1, §3, §4

[14] = test system: MSTO-211H mesothelioma cells; experiment: Synergy of MBZ with chemotherapeutic agents (Chou-Talalay CI, Cell Titer Glo); settings: in combination with MBZ, 72 hour incubation
Method: as §1, §2

[15] = test system: TOV-112D ovarian carcinoma cells; experiment: as above; settings: in combination with MBZ, 72 hour incubation
Method: as §1, §2

LO68 mesothelioma cells = experiment: as above; settings: in combination with MBZ, 72 hour incubation
Method: as §1, §2

JU77 mesothelioma cells = experiment: as above; settings: in combination with MBZ, 72 hour incubation
Method: as §1, §2

[16] = test system: SK-N-AS neuroblastoma cells; experiment: as above; settings: in combination with MBZ, 72 hour incubation
Method: as §2

[17] = test system: SW-1271 small cell lung carcinoma cells; experiment: as above; settings: in combination with MBZ, 72 hour incubation
Method: as §1, §2

[18] = test system: H295R adrenocortical carcinoma cells; experiment: as above; settings: in combination with MBZ, 72 hour incubation
Method: as §5, §2

[19] = test system: DMS-114 small cell lung carcinoma cells; experiment: as above; settings: in combination with MBZ, 72 hour incubation
Method: as §5, §2

[20] = test system: TFK-1 cholangiocarcinoma cells; experiment: as above; settings: in combination with MBZ, 72 hour incubation
Method: as §5, §2

[21] = test system: SW13 adrenocortical carcinoma cells; experiment: as above; settings: in combination with MBZ, 72 hour incubation
Method: as §2

[22] = test system: PC12 pheochromocytoma/paraganglioma cell line; experiment: Synergy of MBZ or HA-PLGA-MBZ with chemotherapeutic agents (Chou-Talalay CI, Cell Titer Glo); settings: in combination with MBZ; PC12; 72 hour incubation
Method: as §1, §3, §4

[23] = test system: SK-LMS-1 leiomyosarcoma cells; experiment: Synergy of MBZ with chemotherapeutic agents (Chou-Talalay CI, Cell Titer Glo); settings: in combination with MBZ, 72 hour incubation
Method: as §2

[24] = test system: SK-UT-1 leiomyosarcoma cells; experiment: as above; settings: in combination with MBZ, 72 hour incubation
Method: as §2

[25] = test system: SK-UT-1B leiomyosarcoma cells; experiment: as above; settings: in combination with MBZ, 72 hour incubation
Method: as §5, §2

[26] = test system: HepG2 hepatocellular carcinoma cells; experiment: as above; settings: in combination with MBZ, 72 hour incubation
Method: as §1, §3

## O=c1[nH]cc(F)c(=O)[nH]1 [5-FU, 5-Fluorouracil]
[1]
  CI range for the concentration pairings: 0.458-0.850
[2]
  CI range for the concentration pairings: 0.448-0.792
[3]
  CI range for the concentration pairings: 0.073-0.558
[4]
  CI range for the concentration pairings: 0.429-0.827
[5]
  CI range for the concentration pairings: 0.370-0.855
[6]
  CI range for the concentration pairings: 0.170-0.877
[7]
  CI range for the concentration pairings: 0.528-0.748
[8]
  CI range for the concentration pairings: 0.252-0.878
[9]
  CI range for the concentration pairings: 0.285-0.860

## CCN1CCN(Cc2ccc(Nc3ncc(F)c(-c4cc(F)c5nc(C)n(C(C)C)c5c4)n3)nc2)CC1 [Abemaciclib]
[10]
  CI range for the concentration pairings: 0.390-0.701

## N.N.O=C([O-])C1(C(=O)[O-])CCC1.[Pt+2] [Carboplatin]
[11]
  CI range for the concentration pairings: 0.542-0.636
[12]
  CI range for the concentration pairings: 0.553-0.860
[3]
  synergy with MBZ (Yes/No): No
[13]
  CI range for the concentration pairings: 0.587-0.876
[14]
  synergy with MBZ (Yes/No): No
[4]
  CI range for the concentration pairings: 0.409-0.783
[5]
  CI range for the concentration pairings: 0.063-0.603
[15]
  CI range for the concentration pairings: 0.506-0.845
LO68 mesothelioma cells
  CI range for the concentration pairings: 0.574-0.865
JU77 mesothelioma cells
  CI range for the concentration pairings: 0.539-0.841
[16]
  CI range for the concentration pairings: 0.433-0.891

## N.N.[Cl][Pt][Cl] [Cisplatin]
[17]
  CI range for the concentration pairings: 0.275-0.763
[1]
  CI range for the concentration pairings: 0.441-0.785
[2]
  CI range for the concentration pairings: 0.469-0.762
[12]
  CI range for the concentration pairings: 0.578-0.878
[13]
  CI range for the concentration pairings: 0.653-0.896
[18]
  CI range for the concentration pairings: 0.544-0.771
[19]
  CI range for the concentration pairings: 0.223-0.837
[6]
  CI range for the concentration pairings: 0.658-0.847
[15]
  CI range for the concentration pairings: 0.497-0.860
[20]
  CI range for the concentration pairings: 0.405-0.877
[8]
  CI range for the concentration pairings: 0.121-0.716
[21]
  CI range for the concentration pairings: 0.410-0.883
[16]
  CI range for the concentration pairings: 0.141-0.746

## O=P1(N(CCCl)CCCl)NCCCO1 (stereo not drawn) [Cyclophosphamide]
[22]
  CI range for the concentration pairings: 0.388-0.879
[1]
  CI range for the concentration pairings: 0.226-0.784
[13]
  CI range for the concentration pairings: 0.569-0.860

## CN(C)/N=N/c1[nH]cnc1C(N)=O [Dacarbazine]
[22]
  CI range for the concentration pairings: 0.246-0.785

## CC(=O)O[C@@]12CO[C@@H]1C[C@H](O)[C@@]1(C)C(=O)[C@H](O)C3=C(C)[C@@H](OC(=O)[C@H](O)[C@@H](NC(=O)OC(C)(C)C)c4ccccc4)C[C@@](O)([C@@H](OC(=O)c4ccccc4)[C@H]21)C3(C)C [Docetaxel]
[12]
  CI range for the concentration pairings: 0.399-0.867
[23]
  synergy with MBZ (Yes/No): No
[15]
  synergy with MBZ (Yes/No): No

## COc1cccc2c1C(=O)c1c(O)c3c(c(O)c1C2=O)C[C@@](O)(C(=O)CO)C[C@@H]3O[C@H]1C[C@H](N)[C@H](O)[C@H](C)O1 [Doxorubicin]
[1]
  CI range for the concentration pairings: 0.419-0.829
[24]
  synergy with MBZ (Yes/No): No
[13]
  CI range for the concentration pairings: 0.646-0.883
[23]
  CI range for the concentration pairings: 0.514-0.872
[14]
  CI range for the concentration pairings: 0.288-0.700
[18]
  synergy with MBZ (Yes/No): No
[25]
  CI range for the concentration pairings: 0.716-0.887
LO68 mesothelioma cells
  CI range for the concentration pairings: 0.433-0.875
JU77 mesothelioma cells
  CI range for the concentration pairings: 0.458-0.820
[21]
  CI range for the concentration pairings: 0.771-0.850
[16]
  CI range for the concentration pairings: 0.267-0.849

## COc1cc([C@@H]2c3cc4c(cc3[C@@H](O[C@@H]3O[C@@H]5CO[C@@H](C)O[C@H]5[C@H](O)[C@H]3O)[C@H]3COC(=O)[C@H]23)OCO4)cc(OC)c1O [Etoposide]
[17]
  CI range for the concentration pairings: 0.535-0.899
[1]
  CI range for the concentration pairings: 0.253-0.893
[13]
  CI range for the concentration pairings: 0.647-0.891
[19]
  CI range for the concentration pairings: 0.551-0.832
[7]
  CI range for the concentration pairings: 0.293-0.707
[9]
  CI range for the concentration pairings: 0.607-0.890
[21]
  CI range for the concentration pairings: 0.618-0.710

## O=P1(NCCCl)OCCCN1CCCl (stereo not drawn) [Ifosamide]
[24]
  CI range for the concentration pairings: 0.317-0.708

## Cc1ccc(NC(=O)c2ccc(CN3CCN(C)CC3)cc2)cc1Nc1nccc(-c2cccnc2)n1 [Imatinib]
[10]
  CI range for the concentration pairings: 0.627-0.875

## CCc1c2c(nc3ccc(OC(=O)N4CCC(N5CCCCC5)CC4)cc13)-c1cc3c(c(=O)n1C2)COC(=O)[C@]3(O)CC [Irinotecan]
[2]
  CI range for the concentration pairings: 0.659-0.793
[11]
  CI range for the concentration pairings: 0.589-0.757
[3]
  synergy with MBZ (Yes/No): No
[4]
  CI range for the concentration pairings: 0.635-0.871
[5]
  CI range for the concentration pairings: 0.439-0.871
[6]
  synergy with MBZ (Yes/No): No
[7]
  CI range for the concentration pairings: 0.502-0.819
[9]
  CI range for the concentration pairings: 0.545-0.793

## O=C1[O][Pt]2([NH][C@@H]3CCCC[C@H]3[NH]2)[O]C1=O [Oxaliplatin]
[2]
  CI range for the concentration pairings: 0.455-0.758
[11]
  CI range for the concentration pairings: 0.395-0.597
[3]
  CI range for the concentration pairings: 0.587-0.897
[4]
  CI range for the concentration pairings: 0.571-0.883
[5]
  CI range for the concentration pairings: 0.355-0.875
[26]
  CI range for the concentration pairings: 0.036-0.834
[8]
  CI range for the concentration pairings: 0.060-0.631
[9]
  CI range for the concentration pairings: 0.493-0.728

## CC(=O)O[C@H]1C(=O)[C@@]2(C)[C@H]([C@H](OC(=O)c3ccccc3)[C@]3(O)C[C@H](OC(=O)[C@H](O)[C@@H](NC(=O)c4ccccc4)c4ccccc4)C(C)=C1C3(C)C)[C@]1(OC(C)=O)CO[C@@H]1C[C@@H]2O [Paclitaxel]
[2]
  CI range for the concentration pairings: 0.341-0.845
[12]
  CI range for the concentration pairings: 0.318-0.889
[3]
  CI range for the concentration pairings: 0.193-0.508
[4]
  CI range for the concentration pairings: 0.425-0.883
[5]
  CI range for the concentration pairings: 0.430-0.864
[15]
  CI range for the concentration pairings: 0.367-0.839

## CC[C@]1(O)C[C@H]2CN(CCc3c([nH]c4ccccc34)[C@@](C(=O)OC)(c3cc4c(cc3OC)N(C=O)[C@H]3[C@@](O)(C(=O)OC)[C@H](OC(C)=O)[C@]5(CC)C=CCN6CC[C@]43[C@@H]65)C2)C1 [Vincristine]
[22]
  CI range for the concentration pairings: 0.274-0.871

## CCC1=C[C@@H]2CN(C1)Cc1c([nH]c3ccccc13)[C@@](C(=O)OC)(c1cc3c(cc1OC)N(C)[C@H]1[C@@](O)(C(=O)OC)[C@H](OC(C)=O)[C@]4(CC)C=CCN5CC[C@]31[C@@H]54)C2 [Vinorelbine]
[14]
  CI range for the concentration pairings: 0.087-0.885
LO68 mesothelioma cells
  CI range for the concentration pairings: 0.445-0.872
JU77 mesothelioma cells
  CI range for the concentration pairings: 0.325-0.799
